This experiment has as its target Factor D (Homo sapiens, UniProt P00746). The experiment can be described thus: Factor D esterolytic assay (Z-Lys-SBzl thioester substrate, DTNB, 405 nm). It is filed as biochemical. As to conditions: substrate Z-Lys-SBzl 1.29 mM, 100 mM HEPES, 500 mM NaCl, pH 7.5, 10% DMSO, tested a minimum of three times. The method in brief:
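Run in pH 7.5 HEPES (100 mM) with 500 mM NaCl and 10% DMSO, with compound preincubated at room temperature or not before adding 1.29 mM Z-Lys-SBzl. Free thiol released by Factor D reacts with DTNB, and rate is followed at 405 nm minus 690 nm over 600 s. IC50 derives from rate-based inhibition, minimum three replicates.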

pIC50: −log10 of the molar value.

Sequence of Factor D (P00746 26-253): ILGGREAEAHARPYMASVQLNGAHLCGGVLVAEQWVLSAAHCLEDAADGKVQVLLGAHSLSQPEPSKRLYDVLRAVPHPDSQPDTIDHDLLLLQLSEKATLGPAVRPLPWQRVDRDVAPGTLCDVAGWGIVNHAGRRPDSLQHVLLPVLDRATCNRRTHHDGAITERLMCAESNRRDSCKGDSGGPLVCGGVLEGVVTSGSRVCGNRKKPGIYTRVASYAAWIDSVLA

In the case of `Cc1ccc2c(n1)c1c(N)ncnc1n2CC(=O)N1[C@@H]2C[C@@H]2C[C@H]1C(=O)Nc1cccc(Br)n1` [Compound 285g, (1R,3S,5R)-2-(2-(4-amino-6-methyl-9H-pyrido[2′,3′:4,5]pyrrolo[2,3-d]pyrimidin-9-yl)acetyl)-N-(6-bromopyridin-2-yl)-2-azabicyclo[3.1.0]hexane-3-carboxamide], the pIC50 was more than 7.00.
In the case of `Cc1ccc2c(n1)c1c(N)ncnc1n2CC(=O)N1[C@H](C(=O)Nc2cccc(Br)n2)C[C@@]2(C)C[C@@H]12` [Compound 286a, (1R,3S,5R)-2-(2-(4-amino-6-methyl-9H-pyrido[2′,3′:4,5]pyrrolo[2,3-d]pyrimidin-9-yl)acetyl)-N-(6-bromopyridin-2-yl)-5-methyl-2-azabicyclo[3.1.0]hexane-3-carboxamide], the pIC50 is more than 7.00.
Take `Cc1cc(C(F)(F)F)cc2c3c(N)ncnc3n(CC(=O)N3[C@H](C(=O)Nc4cccc(Cl)n4)C[C@@]4(C)C[C@@H]34)c12` [Compound 287a, (1R,3S,5R)-2-(2-(4-amino-8-methyl-6-(trifluoromethyl)-9H-pyrimido[4,5-b]indol-9-yl)acetyl)-N-(6-chloropyridin-2-yl)-5-methyl-2-azabicyclo[3.1.0]hexane-3-carboxamide]: the pIC50 was more than 7.00.
In the case of `Cc1cc(-c2cccnc2)cc2c3c(N)ncnc3n(CC(=O)N3[C@@H]4C[C@@H]4C[C@H]3C(=O)Nc3cccc(Br)n3)c12` [Compound 288c, (1R,3S,5R)-2-(2-(4-amino-8-methyl-6-(pyridin-3-yl)-9H-pyrimido[4,5-b]indol-9-yl)acetyl)-N-(6-bromopyridin-2-yl)-2-azabicyclo[3.1.0]hexane-3-carboxamide], the pIC50 was more than 7.00.
Regarding `Cc1cc(-c2cccnc2)cc2c3c(N)ncnc3n(CC(=O)N3[C@H](C(=O)Nc4cccc(Br)n4)C[C@@]4(C)C[C@@H]34)c12` [Compound 289a, (1R,3S,5R)-2-(2-(4-amino-8-methyl-6-(pyridin-3-yl)-9H-pyrimido[4,5-b]indol-9-yl)acetyl)-N-(6-bromopyridin-2-yl)-5-methyl-2-azabicyclo[3.1.0]hexane-3-carboxamide], the pIC50 is more than 7.00.
Then `Nc1ncnc2c1c1nc(Br)ccc1n2CC(=O)N1[C@@H]2C[C@@H]2C[C@H]1C(=O)Nc1cccc(Br)n1` [Compound 290g, (1R,3S,5R)-2-(2-(4-amino-6-bromo-9H-pyrido[2′,3′:4,5]pyrrolo[2,3-d]pyrimidin-9-yl)acetyl)-N-(6-bromopyridin-2-yl)-2-azabicyclo[3.1.0]hexane-3-carboxamide], with more than 7.00; and `Cc1cc(C(F)(F)F)cc2c3c(N)ncnc3n(CC(=O)N3[C@@H]4C[C@@H]4C[C@H]3C(=O)Nc3cccc(Cl)n3)c12` [Compound 291a, (1R,3S,5R)-2-(2-(4-amino-8-methyl-6-(trifluoromethyl)-9H-pyrimido[4,5-b]indol-9-yl)acetyl)-N-(6-chloropyridin-2-yl)-2-azabicyclo[3.1.0]hexane-3-carboxamide], with more than 7.00.
Then `C[C@@]12C[C@@H](C(=O)Nc3cccc(Br)n3)N(C(=O)Cn3c4ccc(Br)nc4c4c(N)ncnc43)[C@@H]1C2` [Compound 292a, (1R,3S,5R)-2-(2-(4-amino-6-bromo-9H-pyrido[2′,3′:4,5]pyrrolo[2,3-d]pyrimidin-9-yl)acetyl)-N-(6-bromopyridin-2-yl)-5-methyl-2-azabicyclo[3.1.0]hexane-3-carboxamide], with more than 7.00; and `Nc1ncnc2ccc(CC(=O)N3C[C@H](F)C[C@H]3C(=O)NCc3cccc(Cl)c3F)cc12` [Compound 294c, (2S,4R)-1-(2-(4-aminoquinazolin-6-yl)acetyl)-N-(3-chloro-2-fluorobenzyl)-4-fluoropyrrolidine-2-carboxamide], with less than 6.00; and `Cc1cc(C(F)(F)F)cc2c3c(N)ncnc3n(CC(=O)N3[C@@H]4C[C@@H]4C[C@H]3C(=O)Nc3cncc(Br)n3)c12` [Compound 295a, (1R,3S,5R)-2-(2-(4-amino-8-methyl-6-(trifluoromethyl)-9H-pyrimido[4,5-b]indol-9-yl)acetyl)-N-(6-bromopyrazin-2-yl)-2-azabicyclo[3.1.0]hexane-3-carboxamide], with more than 7.00.

The term pIC50 denotes −log10 of the IC50, conventionally taken in molar units.
